# Results reported in patent US4390523A, “Sorbose for inhibiting fermentation acids in the mouth” (priority 1972, dated 1983).
# Values joined by “and” are separate entries in the source; they are usually repeats but may differ in a detail not shown here. Equal values may be shown once. “Also recorded” adds a separate entry of the source. Read-outs that look alike come from different tables or passages of the source.
# Legend:
# [1] = test system: oral bacteria (dilute human saliva); assay: Formation of acids and lowering of pH by fermentation by oral bacteria (Table III); type: cell-based; conditions: for pH of medium / NaOH necessary for neutralization: 1 ml of 18% solution in 10 ml medium; for pH of medium: saliva, 37° C.; for NaOH necessary for neutralization: N/40 NaOH; for formation of acids / acidification (conclusion) / lowering of the pH to: medium inoculated with dilute saliva
# Method: A series of tubes containing 10 ml of a sugarless nutritive culture medium at pH 7 was prepared. These tubes were sterilized by passing them through an autoclave at 120° C. for 20 minutes.
# 1 ml of sterile water was introduced into a first series of five tubes to make a control series.
# 1 ml of a sterile 18% solution of dextrose (weight/volume=W/V) was introduced into a second series of five tubes.
# 1 ml of a sterile 18% solution of saccharose (W/V) was introduced into a third series of five tubes.
# 1 ml of a sterile 18% solution of sorbose (W/V) was introduced into a fourth series of five tubes.
# The sterile solutions of dextrose, saccharose and sorbose were obtained by sterilizing filtration by the usual technique.
# A dilution of human saliva was prepared for immediate use and four tubes of each series were inoculated with the same volume of dilute saliva.
# The formation of acids was followed by electric measurement of the pH and by determination of the quantity of acids formed; this determination was effected with a N/40 sodium/hydroxide solution, phenolphthalein being used as a neutralization indicator; a first determination was made before incubation, the following four determinations after incubations of 3, 6, 10 and 24 hours, respectively, at 37° C.
# The results are assembled in Table III (pH value and value of the number of ml of sodium hydroxide necessary for neutralization).
# [2] = test system: oral bacteria (dilute human saliva); conditions: background statement; cited from earlier work
# [3] = cited from earlier work
# [4] = Acute toxicity and lethalness of sorbose in rats; type: in vivo, WISTAR rat; conditions: rat, in vivo, ip; intraperitoneal; WISTAR rats; Karber and Behrens method; read-out: lethal dose 50 (LD50)
# Method: (§1) The toxicity of sorbose has been studied in a first series of tests.
# (§2) The test animals were ROCKFELLER mice and WISTAR rats.
# (§3) Thus, solutes of sorbose (concentrations used: 615, 700, 900, 1000 and 1100 mg per ml) were administered orally, intravenously and intraperitoneally in different doses and concentrations to male mice of the ROCKFELLER type and to male rats of the WISTAR type.
# [5] = test system: male rats of the WISTAR type; assay: Acute toxicity and lethalness of sorbose in rats; type: in vivo, WISTAR rat; conditions: rats
# Method: as §1, §2, §3
# [6] = Acute toxicity and lethalness of sorbose in mice; type: in vivo, ROCKFELLER mouse; conditions: mouse, in vivo, ip; intraperitoneal; ROCKFELLER mice; Karber and Behrens method; read-out: lethal dose 50 (LD50)
# Method: as §1, §2, §3
# [7] = test system: male mice of the ROCKFELLER type; assay: Acute toxicity and lethalness of sorbose in mice; type: in vivo, ROCKFELLER mouse; conditions: mice
# Method: as §1, §2, §3
# [8] = test system: ROCKFELLER mice and WISTAR rats; assay: Overall toxicity and tolerance tests of sorbose in mice and rats; type: in vivo, mouse; rat
# Description: as §1, §2
# [9] = Urinary biological parameters before and during oral administration of sorbose (Table I); type: in vivo, WISTAR rat
# Method: In the course of this experiment, detailed biological examinations concerning the urine and blood were carried out.
# The urine examinations comprised the following: determination of the reducing power (copper-neocuproin method), determination of the true glycosuria (glucose-oxydase method), determination of the proteinuria, measurement of the urinary pH, determination of the urinary ionogram relating to the chlorine ions, sodium and potassium.
# [10] = Chromatographic examination of the urine of animals ingesting sorbose; type: in vivo, WISTAR rat
# Method: Thus, sorbose was administered orally to rats of the WISTAR type, as a supplement to the usual food ration, in a dose of 0.330 grams per 100 grams of body weight; such a dose would correspond to a daily intake of 198 grams of sorbose in a 60 kg person. This test was carried on for four weeks and three months. Each morning, 1 milliliter per 100 grams of body weight of a sorbose solute in water containing 0.330 g/ml was administered orally to each of the animals.
# [11] = Clinical observation and weight development during oral administration of sorbose (food value); type: in vivo, WISTAR rat; conditions: 0.330 g per 100 g of body weight orally
# Description: The food value of sorbose has been studied in a second series of tests.
# [12] = test system: viscera: stomach, small intestine, large intestine, liver, kidneys and pancreas; assay: Anatomical and histopathological observations at the end of the tests; type: in vivo, WISTAR rat
# Description: At the end of the tests the animals were put to death so that anatomical and histopathological observations could be made.
# [13] = test system: man; assay: Hypersorbemia produced in man; type: in vivo; conditions: 1 gram per kg, empty stomach, in one lot
# Method: To complete the tests concerned with animals, tests were carried out for hypersorbemia produced in man (ingestion on an empty stomach in one lot of a dose of sorbose equivalent to 1 gram per kg of weight).
# [14] = rat, in vivo, po
# Method: (§4) This test was carried on for four weeks and three months. Each morning, 1 milliliter per 100 grams of body weight of a sorbose solute in water containing 0.330 g/ml was administered orally to each of the animals.
# (§5) The examinations of the blood comprised the following:
# (§6) determination of the true glycemia (glucose-oxydase dosage),
# (§7) determination of the ionemia (chlorides-phosphates-bicarbonates-sodium-potassium), azotemia, proteinemia, albuminemia, calcemia, cholesterolemia, uricemia and creatinemia, the total bilirubinemia and the levels of the alkaline phosphatases, the creatine-phosphokinases and the glutamino-oxaloacetic transaminases (these determinations were effected with the aid of a Technicon SM A 6+SM A 12 autoanalyzer).
# (§8) These biological tests were carried out first on animals fed normally and then on the same animals in the course of the following weeks during which sorbose was being administered as a supplement to the food ration, as hereinbefore described.
# [15] = cited from earlier work; remark: listed apart in the source
# [16] = Biological parameters of blood before and during oral administration of sorbose (Table II); conditions: WISTAR rats, oral ingestion
# Method: as §4, §5, §6, §7, §8
# [17] = prolonged administration orally and in high doses
# [18] = 330 mg/100 g oral, a = first week, rats 1-6
# [19] = 330 mg/100 g oral, b = fifth week, rats 1-6
# [20] = 330 mg/100 g oral, c = thirteenth week, rats 1-6
compound,measurement,setting,value
OC[C@H]1O[C@@](CO)(O[C@H]2O[C@H](CO)[C@@H](O)[C@H](O)[C@H]2O)[C@@H](O)[C@@H]1O [saccharose],pH of medium,[1]; 0 hours,7.0
same,NaOH necessary for neutralization,[1]; 0 hours,2.50 mL
same,pH of medium,[1]; 3 hours,6.90
same,NaOH necessary for neutralization,[1]; 3 hours,2.45 mL
same,pH of medium,[1]; 6 hours,6.90
same,NaOH necessary for neutralization,[1]; 6 hours,2.40 mL
same,pH of medium,[1]; 10 hours,6.10
same,NaOH necessary for neutralization,[1]; 10 hours,3.20 mL
same,pH of medium,[1]; 24 hours,5.10
same,NaOH necessary for neutralization,[1]; 24 hours,6.10 mL
same,formation of acids / acidification (conclusion),[1],distinct acidification
same,lowering of the pH to,[1],5.1
same,cariogenic properties,[2],has cariogenic properties
same,formation of acids and lowering of pH under the action of mouth bacteria (general statement),[2],give rise to a lowering of the pH and a considerable production of acids
OC[C@@H](O)[C@H](O)[C@@H](O)CO [xylitol],laxative effect,[3]; high doses,laxative in high doses
O=C(CO)[C@H](O)[C@@H](O)[C@H](O)CO [sorbose],LD50,[4],12800 mg/kg
same,dose at which no lethalness was observed,[5]; intravenously,5.5 grams per kg of body weight
same,dose at which no lethalness was observed,[5]; orally,11 grams per kg of body weight
same,LD50,[6],13600 mg/kg
same,dose at which no lethalness was observed,[7]; intravenously,10 grams per kg of body weight
same,dose at which no lethalness was observed,[7]; orally,27.5 grams per kg of body weight
same,"toxicity (acute, subacute and chronic)",[8]; ROCKFELLER mice and WISTAR rats,"devoid of acute, subacute and chronic toxicity; also recorded: absence of acute toxicity"
same,clinical and biological tolerance,[8]; [17],tolerated perfectly on the clinical and biological planes
same,histologically detectable visceral lesion,[8]; [17],does not result in any histologically detectable visceral lesion
same,physiological proteinuria (conclusion),"[9]; 330 mg/100 g oral, 13 weeks",does not lead to a significant modification of the physiological proteinuria
same,reducing power in the urine (conclusion),"[9]; 330 mg/100 g oral, 13 weeks",causes the appearance of the reducing power in the urine
same,urinary ionogram (conclusion),"[9]; 330 mg/100 g oral, 13 weeks",does not modify the urinary ionogram
same,urinary pH (conclusion),"[9]; 330 mg/100 g oral, 13 weeks",does not modify the urinary pH
same,urinary potassium,[9]; [18],1.10 meq/24 h and 1.03 meq/24 h and 1.68 meq/24 h and 1.26 meq/24 h and 1.48 meq/24 h and 1 meq/24 h
same,urinary total reducing power,[9]; [18],56 mg/24 h and 30 mg/24 h and 39 mg/24 h and 38 mg/24 h and 35 mg/24 h and 28 mg/24 h
same,urinary chlorides,[9]; [19],1.27 meq/24 h and 0.90 meq/24 h and 1.11 meq/24 h and 1.56 meq/24 h and 1.00 meq/24 h and 1.46 meq/24 h
same,urinary pH,[9]; [19],8.5 and 8.2 and 9.2 and 9.1
same,urinary chlorides,[9]; [20],0.92 meq/24 h and 0.79 meq/24 h and 0.70 meq/24 h and 0.90 meq/24 h and 1.08 meq/24 h and 0.76 meq/24 h
same,urinary pH,[9]; [20],9 and 8.5 and 8.8 and 9.1
same,urinary potassium,[9]; [20],1.19 meq/24 h and 0.99 meq/24 h and 1.20 meq/24 h and 1.26 meq/24 h and 1.08 meq/24 h
same,urinary sodium,[9]; [20],0.39 meq/24 h and 0.34 meq/24 h and 0.54 meq/24 h and 0.45 meq/24 h and 0.46 meq/24 h and 0.61 meq/24 h
same,urinary total reducing power,[9]; [20],36 mg/24 h and 31 mg/24 h and 32 mg/24 h and 41 mg/24 h
same,glycosuria,"[9]; during oral administration, 330 mg/100 g, 13 weeks",No glycosuria was detected; also recorded: does not result in true glycosuria
same,glucose and sorbose in the urine by chromatographic examination,[10],absence of glucose and the presence of sorbose
same,clinically detectable anomalies,[11]; four weeks and three months,no clinically detectable anomalies were observed
same,weight development,[11]; versus control animals,comparable to that observed in control animals
same,anatomical anomaly of the viscera,[12],no anatomical anomaly was found
same,histopathological change of structure of the organs,[12],did not enable any histopathological change of structure of the organs examined to be detected
same,tolerance in man,[13],well tolerated
same,total reducing power of the blood in man,[13],"heightening of the total reducing power of the blood, which disappeared in a few hours"
same,true glycemia in man,[13],did not produce any variation in the true glycemia
same,pH of medium,[1]; 0 hours,7.0
same,NaOH necessary for neutralization,[1]; 0 hours,2.50 mL
same,pH of medium,[1]; 3 hours,6.80
same,NaOH necessary for neutralization,[1]; 3 hours,2.25 mL
same,pH of medium,[1]; 6 hours,6.90
same,NaOH necessary for neutralization,[1]; 6 hours,2.20 mL
same,pH of medium,[1]; 10 hours,6.80
same,NaOH necessary for neutralization,[1]; 10 hours,1.90 mL
same,pH of medium,[1]; 24 hours,6.80
same,NaOH necessary for neutralization,[1]; 24 hours,1.90 mL
same,formation of acids / acidification (conclusion),[1],"does not give rise to the formation of acids or to a lowering of the pH; also recorded: does not lead, by fermentation by bacteria of the mouth, to the production of fermentation acids or to a lowering of the pH; also recorded: no formation of acids or lowering of the pH; also recorded: does not give rise to the formation of acids by oral bacteria"
same,cariogenicity (conclusion),[1]; oral bacteria,non-cariogenic
same,serobiogram (conclusion),[14],does not modify the serobiogram
same,total reducing power of the serum (conclusion),[14],does not modify the value of the true glycemia or that of the total reducing power of the serum
same,solubility in alcohol,[15],not very soluble in alcohol
same,solubility in water,[15],rather soluble in water
same,tolerance (conclusion from the biological analyses),[16],tolerated perfectly
OC[C@@H](O)[C@@H](O)[C@H](O)[C@H](O)CO [mannitol],laxative effect,[3]; in vivo,laxative in high doses
cyclamates,harmfulness,[3]; in vivo,subject of serious reservations on the part of the medical profession in regards to their harmfulness
"O=C(CO)[C@@H](O)[C@H](O)[C@H](O)CO [levulose, reference compound]",hygroscopicity,"[15]; printed as ""hydroscopic""",very hydroscopic
OC[C@@H](O)[C@@H](O)[C@H](O)[C@@H](O)CO [sorbitol],laxative effect,[3]; in vivo,laxative in high doses
O=C[C@H](O)[C@@H](O)[C@H](O)[C@H](O)CO [dextrose],pH of medium,[1]; 0 hours,7.0
same,NaOH necessary for neutralization,[1]; 0 hours,2.50 mL
same,pH of medium,[1]; 3 hours,6.90
same,NaOH necessary for neutralization,[1]; 3 hours,2.25 mL
same,pH of medium,[1]; 6 hours,6.80
same,NaOH necessary for neutralization,[1]; 6 hours,2.40 mL
same,pH of medium,[1]; 10 hours,6.50
same,NaOH necessary for neutralization,[1]; 10 hours,2.80 mL
same,pH of medium,[1]; 24 hours,5.30
same,NaOH necessary for neutralization,[1]; 24 hours,5.70 mL
same,formation of acids / acidification (conclusion),[1],distinct acidification
same,lowering of the pH to,[1],5.3
same,formation of acids and lowering of pH under the action of mouth bacteria (general statement),[2],give rise to a lowering of the pH and a considerable production of acids
